Patent US5747447A, “Stable polypeptide composition” (COR Therapeutics, priority 1995, dated 1998)
Like-named read-outs stand apart in the source and are kept apart here. Where a SMILES comes first, the peptide text is derived from it. Bridges are numbered along the chain shown (N, C = ends). [ ]: non-standard residue; d: D form. hArg = N=C(N)NCCCC[C@H](N)C(=O)O; Mpa = O=C(O)CCS

Legend:
[1] = Stability of polypeptide I in citrate buffer, HPLC and visual (Example 1); format: physicochemical; conditions: citrate buffer pH 5.00 and 5.50 versus pH 6.0
Procedure: Citrate buffer solution is prepared by mixing citric acid in a volumetric flask to give a final citrate concentration of 25 mM with Nanopure water and adding NaOH to adjust the pH.
One ml aliquots of the above solution of polypeptide in citrate buffer were sealed in borosilicate glass ampules under sterile conditions and stored at a constant temperature. Test sample ampules from each pH and temperature condition 4° C., 50° C. and 70° C. were removed periodically, visually assessed and then analyzed separately by HPLC using a mobile phase comprising acetonitrile (MeCN) and 0.1% trifluoroacetic (TFA) in water. This stability was evaluated by conventional assay methods applicable to purity, weight or size of polypeptides. These included not only visual evaluations, such as discoloration, transparency and precipitation, and included assays normally applied to separate polypeptides from each other and from other materials by reversed phase high performance liquid chromatography (HPLC).
Results of these experiments are set forth in Table 1 in which the stability is expressed in terms of the percentage of main peak of original polypeptide found in the sample analyzed by HPLC. The composition was also found to be normal on visual evaluation.

[2] = Procedure: 20 ml aliquots of the above solution were placed into Type I glass vials and sealed with rubber stoppers and aluminum closures under sterile conditions and stored at a constant temperature. Test sample vials from each temperature condition, -15° C., 5° C., 30° C. and 45° C. were removed periodically and individually assessed and analyzed for stability by HPLC and visual evaluation as described in Example 1.
[3] = target: ADP-induced human platelet aggregation (Homo sapiens, UniProt P05106+P08514); test: standard aggregation inhibition assay (ADP-induced human platelet aggregation); format: cell-based
Description: 2. Standard assays directly applied to platelet aggregation, such as those described by Gann, Z.-R., et al., J Biol Chem (1988) 263:19827-19832; Huang, T. F., et al., J Biol Chem (1987) 262:16157-16163; Biochemistry (1989) 28:661-666, cited above and incorporated herein by reference;

vitronectin receptor = vitronectin receptor (Homo sapiens, UniProt P05106+P06756); test: plate assay, inhibition of vitronectin binding to vitronectin receptor; conditions: at concentrations up to 1 uM
Description: The PAI assay systems further include characterization of the PAI specificity by binding inhibition assays identical to that above but substituting other adhesive proteins for Fg and other receptors for GP IIb-IIIa. In particular, inhibition of the binding of vitronectin to the vitronectin receptor; fibronectin to the fibronectin receptor; fibronectin to GP IIb-IIIa and fibrinogen and/or vWF to GP IIb-IIIa can be assessed. The adhesive protein and receptors for these assays are available in the art.

M21 melanoma cells = test: M21 melanoma cell adhesion to vitronectin-coated plates; format: cell-based
Procedure: M21 melanoma cells were labelled with ^35 S-methionine, and then added to vitronectin-coated plates in the presence of the indicated concentrations of purified snake venom peptides. Cell attachment was measured by solubilizing the cells remaining after an incubation and wash, as previously describe.

ADP-induced human platelet aggregation, sequence (P08514 32-1039): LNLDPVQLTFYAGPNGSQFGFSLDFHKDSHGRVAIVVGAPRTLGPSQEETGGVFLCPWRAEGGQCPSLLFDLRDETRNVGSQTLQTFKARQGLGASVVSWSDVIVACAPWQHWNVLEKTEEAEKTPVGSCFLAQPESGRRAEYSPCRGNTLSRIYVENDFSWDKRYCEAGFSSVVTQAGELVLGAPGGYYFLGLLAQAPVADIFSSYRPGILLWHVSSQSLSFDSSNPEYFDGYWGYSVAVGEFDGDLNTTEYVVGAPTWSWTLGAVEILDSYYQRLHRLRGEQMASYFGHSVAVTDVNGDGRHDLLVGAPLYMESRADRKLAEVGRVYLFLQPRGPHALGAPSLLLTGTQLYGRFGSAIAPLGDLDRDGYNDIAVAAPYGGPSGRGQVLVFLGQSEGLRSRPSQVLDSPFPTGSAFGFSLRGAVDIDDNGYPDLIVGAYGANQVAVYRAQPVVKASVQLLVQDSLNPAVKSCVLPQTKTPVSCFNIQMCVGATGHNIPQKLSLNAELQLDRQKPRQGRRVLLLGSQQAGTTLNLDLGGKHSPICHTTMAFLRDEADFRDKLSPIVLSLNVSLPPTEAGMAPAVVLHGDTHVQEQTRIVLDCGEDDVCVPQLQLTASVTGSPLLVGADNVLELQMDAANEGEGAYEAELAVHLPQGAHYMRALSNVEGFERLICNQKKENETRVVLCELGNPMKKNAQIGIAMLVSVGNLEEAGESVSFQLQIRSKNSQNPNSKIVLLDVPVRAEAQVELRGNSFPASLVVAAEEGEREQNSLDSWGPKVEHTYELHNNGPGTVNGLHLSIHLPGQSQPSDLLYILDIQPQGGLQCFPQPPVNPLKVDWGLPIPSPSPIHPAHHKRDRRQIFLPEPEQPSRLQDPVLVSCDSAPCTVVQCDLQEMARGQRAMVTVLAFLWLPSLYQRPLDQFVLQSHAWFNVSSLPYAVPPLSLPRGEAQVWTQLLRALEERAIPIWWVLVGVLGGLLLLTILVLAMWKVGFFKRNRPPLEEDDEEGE
ADP-induced human platelet aggregation, sequence (P05106 27-788): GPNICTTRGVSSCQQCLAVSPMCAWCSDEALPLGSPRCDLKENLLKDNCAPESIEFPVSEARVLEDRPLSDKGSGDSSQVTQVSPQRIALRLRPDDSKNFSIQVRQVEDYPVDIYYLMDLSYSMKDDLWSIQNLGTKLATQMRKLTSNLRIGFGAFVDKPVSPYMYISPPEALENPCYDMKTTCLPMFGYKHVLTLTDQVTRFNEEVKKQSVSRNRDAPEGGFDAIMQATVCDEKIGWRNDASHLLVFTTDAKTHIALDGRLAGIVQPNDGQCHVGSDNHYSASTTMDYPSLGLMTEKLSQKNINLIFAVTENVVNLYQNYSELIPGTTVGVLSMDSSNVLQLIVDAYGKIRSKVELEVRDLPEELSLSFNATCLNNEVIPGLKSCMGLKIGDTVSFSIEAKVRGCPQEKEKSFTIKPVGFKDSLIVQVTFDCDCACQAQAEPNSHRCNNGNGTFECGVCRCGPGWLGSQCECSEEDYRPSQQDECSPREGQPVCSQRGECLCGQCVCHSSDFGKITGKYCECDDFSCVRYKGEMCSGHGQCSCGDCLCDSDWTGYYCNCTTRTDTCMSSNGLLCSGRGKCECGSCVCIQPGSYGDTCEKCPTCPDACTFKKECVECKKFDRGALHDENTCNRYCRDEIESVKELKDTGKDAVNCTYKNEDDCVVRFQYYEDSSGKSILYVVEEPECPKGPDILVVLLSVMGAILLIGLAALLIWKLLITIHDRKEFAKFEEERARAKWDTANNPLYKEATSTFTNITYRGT
vitronectin receptor, sequence (P06756 31-889 limits assumed): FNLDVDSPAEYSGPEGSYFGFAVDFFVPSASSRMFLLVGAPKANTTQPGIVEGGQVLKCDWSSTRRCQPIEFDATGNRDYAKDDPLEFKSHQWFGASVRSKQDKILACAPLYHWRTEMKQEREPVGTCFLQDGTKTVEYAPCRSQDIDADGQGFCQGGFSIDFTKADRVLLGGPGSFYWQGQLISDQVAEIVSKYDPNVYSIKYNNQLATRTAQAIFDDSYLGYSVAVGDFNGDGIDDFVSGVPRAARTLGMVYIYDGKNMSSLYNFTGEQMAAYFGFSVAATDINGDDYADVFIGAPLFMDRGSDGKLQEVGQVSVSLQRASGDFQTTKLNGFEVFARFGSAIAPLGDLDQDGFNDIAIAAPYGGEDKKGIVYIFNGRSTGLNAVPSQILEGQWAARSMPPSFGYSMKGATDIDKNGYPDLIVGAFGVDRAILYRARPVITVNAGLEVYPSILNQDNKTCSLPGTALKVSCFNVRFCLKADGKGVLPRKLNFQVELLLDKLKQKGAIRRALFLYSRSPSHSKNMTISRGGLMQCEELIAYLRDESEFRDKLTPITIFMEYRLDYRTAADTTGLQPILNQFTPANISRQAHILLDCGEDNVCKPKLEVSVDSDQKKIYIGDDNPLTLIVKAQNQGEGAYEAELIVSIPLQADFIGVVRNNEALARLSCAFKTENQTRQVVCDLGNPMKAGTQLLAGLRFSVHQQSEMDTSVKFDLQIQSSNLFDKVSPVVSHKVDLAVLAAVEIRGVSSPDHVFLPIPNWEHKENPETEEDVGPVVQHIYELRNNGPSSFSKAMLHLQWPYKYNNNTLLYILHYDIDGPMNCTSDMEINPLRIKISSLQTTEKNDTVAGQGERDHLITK
vitronectin receptor, sequence (P06756 891-1048 limits assumed): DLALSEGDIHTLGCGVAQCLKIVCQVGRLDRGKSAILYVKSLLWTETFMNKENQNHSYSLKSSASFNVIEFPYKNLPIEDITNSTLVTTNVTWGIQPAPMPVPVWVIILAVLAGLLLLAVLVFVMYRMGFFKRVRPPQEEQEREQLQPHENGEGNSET
vitronectin receptor, sequence (P05106 27-788): as the sequence (P05106 27-788) above

In the case of `N=C(N)NCCCC[C@@H]1NC(=O)CCSSC[C@@H](C(N)=O)NC(=O)[C@@H]2CCCN2C(=O)[C@H](Cc2c[nH]c3ccccc23)NC(=O)[C@H](CC(=O)O)NC(=O)CNC1=O` [I, Mpr-L-homoarginine-Gly-Asp-Trp-Pro-Cys-NH2 .cndot.acetate] ([Mpa][hArg]GDWPC-NH2; disulfide 1-7), the “stability of liquid solution (in words)” value [1] is reported as “unexpectedly very stable at about 4° C., still stable at up to about 50 °C and much more stable at 70 °C in comparison to citrate buffer solutions at pH 6.0”, the “Peptide Stability in 5.5 pH Citrate Buffer Composition (HPLC as in Example 1)” value (shortened to “Peptide Stability”) ([2]; 5° C., Time (days) 0) is reported as 98.8 and the “Peptide Stability” value ([2]; 5° C., Time (days) 76) is reported as 98.6. For the same molecule, the “Peptide Stability” value ([2]; 5° C., Time (days) 126) was 98.5, the “Peptide Stability” value ([2]; 5° C., Time (days) 222) was 98.5 and the “Peptide Stability” value ([2]; 5° C., Time (days) 301) was 98.2. For the same molecule, the “Peptide Stability” value ([2]; 5° C., Time (days) 399) was 98.2, the “Peptide Stability” value ([2]; 5° C., Time (days) 572) was 98.2 and the “Peptide Stability” value ([2]; 30° C. after one month at 5° C., Time (days) 45) was 97.4. For the same molecule, the “Peptide Stability” value ([2]; 30° C. after one month at 5° C., Time (days) 95) was 96.4, the “Peptide Stability” value ([2]; 30° C. after one month at 5° C., Time (days) 191) was 95.8 and the “Peptide Stability” value ([2]; 30° C. after one month at 5° C., Time (days) 270) was 95.1. For the same molecule, the “Peptide Stability” value ([2]; 30° C. after one month at 5° C., Time (days) 368) was 94.5, the “Peptide Stability” value ([2]; 30° C. after one month at 5° C., Time (days) 541) was 93.6 and the “Peptide Stability” value ([2]; 45° C. after one month at 5° C., Time (days) 45) was 96.1. The “Peptide Stability” value ([2]; 45° C. after one month at 5° C., Time (days) 95) was 94.1, the “Peptide Stability” value ([2]; 45° C. after one month at 5° C., Time (days) 191) was 92.4 and the “Peptide Stability” value ([2]; 45° C. after one month at 5° C., Time (days) 270) was 89.8. The “Peptide Stability” value ([2]; 45° C. after one month at 5° C., Time (days) 368) was 86.5, the “Peptide Stability” value ([2]; 45° C. after one month at 5° C., Time (days) 541) was 76.1 and the “Peptide Stability” value ([2]; -15° C. after one month at 5° C., Time (days) 45) was 98.9. For the same molecule, the “Peptide Stability” value ([2]; -15° C. after one month at 5° C., Time (days) 95) was 99.0, the “Peptide Stability” value ([2]; -15° C. after one month at 5° C., Time (days) 191) was 99.1 and the “Peptide Stability” value ([2]; -15° C. after one month at 5° C., Time (days) 270) was 98.7. For the same molecule, the “Peptide Stability” value ([2]; -15° C. after one month at 5° C., Time (days) 368) was 98.6 and the “Peptide Stability” value ([2]; -15° C. after one month at 5° C., Time (days) 541) was 98.9.
For “[E^28 L^41 C^64 ]barbourin (28-73) [Analog #1]”, the “platelet aggregation inhibition activity (in words)” value [3] was “potent inhibitors of platelet aggregation”, the “affinity for VnR (in words)” value (vitronectin receptor) was “relative lack of affinity” and the “M21 cell attachment to vitronectin (in words)” value (M21 melanoma cells) was “Neither barbourin nor Peptide 1 (truncated barbourin) had a significant effect”.
